Test results reported in US8039454B2, “Macrolide compounds with antibiotic and antineoplastic properties” (Weihe Pharmaceuticals Co. Ltd., priority 2006, dated 2011).
Converted amounts (≈) assume the structure as drawn.

Legend:
Test in all cases: MIC by standard dilution method in Tryptic Soy Broth
Assay type in all cases: cell-based
[1] = system: Enterococcus faecalis; conditions: 35° C., 24 h incubation
Description: (§1) To determine minimum inhibitory concentration (MIC) of the WBI-3001, the standard dilution method was used. The tests were conducted at 35° C. and the MICs were determined after 24 h incubation.

[2] = system: Escherichia coli; conditions: 35° C., 24 h incubation
Description: as §1

[3] = system: Pseudomonas aeruginosa; conditions: 35° C., 24 h incubation
Description: as §1

[4] = system: S. aureus MSRA (clinical isolates of methicillin-resistant strain); conditions: Staphylococcus aureus, 24 h
Description: as §1

[5] = system: Staphylococcus epidermidis; conditions: 35° C., 24 h incubation
Description: as §1

[6] = system: Streptococcus pyogenes; conditions: 35° C., 24 h incubation
Description: as §1

CC[C@H]1OC(=O)[C@H](C)[C@@H](O[C@H]2C[C@@](C)(OC)[C@@H](O)[C@H](C)O2)[C@H](C)[C@@H](O[C@@H]2O[C@H](C)C[C@H](N(C)C)[C@H]2O)[C@](C)(O)C[C@@H](C)C(=O)[C@H](C)[C@@H](O)[C@]1(C)O [Erythromycin]
MIC [1]: > 32 µg/mL
MIC [2]: 1 µg/mL (≈ 1.36 µM)
MIC [3]: > 32 µg/mL
MIC [4]: > 32 µg/mL
MIC [5]: 0.25 µg/mL (≈ 0.341 µM)
MIC [6]: 0.03 µg/mL (≈ 0.0409 µM)
